Counter-ions that a name gives are not always drawn. Like-named read-outs stand apart in the source and are kept apart here.
Experiments:
[1] = Hygroscopicity of crystal forms of salts (DVS, 25° C.); type: physicochemical; details: for Crystal form after DVS: 0% to 95% RH
Excerpt: According to the description of hygroscopic characteristics and the definition of hygroscopic weight gain in “9103 Guidelines for Hygroscopicity of Pharmaceuticals”, Chinese Pharmacopoeia, Volume IV, 2015 edition, the following are defined: • deliquescent: absorbing enough water to form a liquid; • extremely hygroscopic: having a hygroscopic weight gain of not less than 15%; • hygroscopic: having a hygroscopic weight gain of less than 15% and not less than 2%; • slightly hygroscopic: having a hygroscopic weight gain of less than 2% and not less than 0.2%; and • no or almost no hygroscopicity: having a hygroscopic weight gain of less than 0.2%.
Surface Measurement Systems intrinsic DVS was used at 25° C. The observed humidity ranged from 0% to 95%. The step was 10%. The criterion was that the mass change dM/dT for each step was less than 0.002%. TMAX was 360 min. Two cycles were carried out.

[2] = Stability of crystal forms of salts under influencing factors (illumination, high temperature, high humidity); type: physicochemical
Excerpt: The sampling and investigation period was 30 days.

[3] = type: physicochemical
Protocol: A salt-type sample was sealed with an aluminum foil bag and placed under the conditions of 25° C./60% RH and 40° C./75% RH, respectively, to investigate the stability.

[4] = Illumination (4500 Lux), 7 days, open
[5] = Illumination (4500 Lux), 14 days, open
[6] = Illumination (4500 Lux), 30 days, open
[7] = 25° C./60% RH, sealed aluminum foil bag
[8] = 40° C./75% RH, sealed aluminum foil bag
[9] = Illumination (4500 Lux), 5 days, open
[10] = Illumination (4500 Lux), 10 days, open

O=C(O)c1ccc2nc(CN3CCC(c4cccc5c4O[C@@H](c4ccc(Cl)cc4F)CO5)CC3)n(C[C@@H]3CCO3)c2c1 [Crystal form E of tromethamine salt, 2-((4-((S)-3-(4-chloro-2-fluorophenyl)-2,3-dihydrobenzo[b][1,4]dioxan-5-yl)piperidin-1-yl)methyl)-1-(((S)-oxetan-2-yl)methyl)-1H-benzo[d]imidazole-6-carboxylic acid]
hygroscopic weight gain 0.0% RH to 80.0% RH [1]: 7.27% | Crystal form after DVS [1]: Unchanged | chemical stability [2]: slightly poor chemical stability | physical stability [2]: slightly poor physical stability | % Purity ([2]; 40° C., 7 days, open): 96.0% | Crystal form ([2]; 40° C., 7 days, open): Unchanged | % Purity ([2]; 40° C., 14 days, open): 93.6% | Crystal form ([2]; 40° C., 14 days, open): Unchanged | % Purity ([2]; 40° C., 30 days, open): 85.0% | Crystal form ([2]; 40° C., 30 days, open): Unchanged | % Purity ([2]; 60° C., 7 days, open): 94.8% | Crystal form ([2]; 60° C., 7 days, open): Unchanged | % Purity ([2]; 60° C., 30 days, open): 81.8% | Crystal form ([2]; 60° C., 30 days, open): Amorphous form | % Purity ([2]; 75% RH, 7 days, open): 98.3% | Crystal form ([2]; 75% RH, 7 days, open): Unchanged | % Purity ([2]; 75% RH, 14 days, open): 98.4% | Crystal form ([2]; 75% RH, 14 days, open): Unchanged | % Purity ([2]; 75% RH, 30 days, open): 98.3% | Crystal form ([2]; 75% RH, 30 days, open): Unchanged | % Purity ([2]; 92.5% RH, 7 days, open): 98.2% | Crystal form ([2]; 92.5% RH, 7 days, open): Unchanged | % Purity ([2]; 92.5% RH, 14 days, open): 98.2% | Crystal form ([2]; 92.5% RH, 14 days, open): Unchanged | % Purity ([2]; 92.5% RH, 30 days, open): 98.1% | Crystal form ([2]; 92.5% RH, 30 days, open): Amorphous form | % Purity [2, 4]: 98.1% | Crystal form [2, 4]: Unchanged | % Purity [2, 5]: 97.9% | Crystal form [2, 5]: Unchanged | % Purity [2, 6]: 95.5% | Crystal form [2, 6]: Unchanged | % Purity ([2]; Initial condition, 0 days): 98.3% | physical and chemical stability [3]: good physical and chemical stability | % Purity ([3]; 25° C./60% RH, 1 month, sealed aluminum foil bag): 98.2% | % Purity ([3]; 25° C./60% RH, 2 months, sealed aluminum foil bag): 98.3% | % Purity ([3]; 25° C./60% RH, 3 months, sealed aluminum foil bag): 98.1% | Crystal form [3, 7]: Unchanged | % Purity ([3]; 40° C./75% RH, 1 month, sealed aluminum foil bag): 97.7% | % Purity ([3]; 40° C./75% RH, 2 months, sealed aluminum foil bag): 97.7% | % Purity ([3]; 40° C./75% RH, 3 months, sealed aluminum foil bag): 97.2% | Crystal form [3, 8]: Unchanged | % Purity ([3]; Initial condition): 98.3%

O=C(O)c1ccc2nc(CN3CCC(c4cccc5c4O[C@@H](c4ccc(Cl)cc4F)CO5)CC3)n(C[C@@H]3CCO3)c2c1 [Crystal form I of tartrate salt, 2-((4-((S)-3-(4-chloro-2-fluorophenyl)-2,3-dihydrobenzo[b][1,4]dioxan-5-yl)piperidin-1-yl)methyl)-1-(((S)-oxetan-2-yl)methyl)-1H-benzo[d]imidazole-6-carboxylic acid]
hygroscopic weight gain 0.0% RH to 80.0% RH [1]: 1.44% | Crystal form after DVS [1]: Unchanged | % Purity ([2]; 40° C., 5 days, open): 98.4% | Crystal form ([2]; 40° C., 5 days, open): Unchanged | % Purity ([2]; 40° C., 10 days, open): 98.1% | Crystal form ([2]; 40° C., 10 days, open): Unchanged | % Purity ([2]; 40° C., 30 days, open): 97.6% | Crystal form ([2]; 40° C., 30 days, open): Unchanged | % Purity ([2]; 60° C., 5 days, open): 97.9% | Crystal form ([2]; 60° C., 5 days, open): Unchanged | % Purity ([2]; 60° C., 10 days, open): 97.2% | Crystal form ([2]; 60° C., 10 days, open): Unchanged | % Purity ([2]; 60° C., 30 days, open): 96.4% | Crystal form ([2]; 60° C., 30 days, open): Unchanged | % Purity ([2]; 75% RH, 5 days, open): 98.6% | Crystal form ([2]; 75% RH, 5 days, open): Unchanged | % Purity ([2]; 75% RH, 10 days, open): 98.6% | Crystal form ([2]; 75% RH, 10 days, open): Unchanged | % Purity ([2]; 75% RH, 30 days, open): 98.4% | Crystal form ([2]; 75% RH, 30 days, open): Unchanged | % Purity ([2]; 92.5% RH, 5 days, open): 98.7% | Crystal form ([2]; 92.5% RH, 5 days, open): Unchanged | % Purity ([2]; 92.5% RH, 10 days, open): 98.6% | Crystal form ([2]; 92.5% RH, 10 days, open): Unchanged | % Purity ([2]; 92.5% RH, 30 days, open): 98.3% | Crystal form ([2]; 92.5% RH, 30 days, open): Unchanged | % Purity [2, 9]: 98.7% | Crystal form [2, 9]: Unchanged | % Purity [2, 10]: 98.6% | Crystal form [2, 10]: Unchanged | % Purity [2, 6]: 98.3% | Crystal form [2, 6]: Unchanged | % Purity ([2]; Initial condition, 0 days): 98.8% | physical and chemical stability [3]: good physical and chemical stability | Crystal form [3, 7]: Unchanged | Crystal form [3, 8]: Unchanged | % Purity ([3]; Initial condition): 98.8%
